# Results taken from patent US10702538B2, “Ship inhibition to induce activation of natural killer cells” (THE RESEARCH FOUNDATION FOR THE STATE UNIVERSITY OF NEW YORK, priority 2014, dated 2020).
# Entries after “also recorded” stand apart in the source; their conditions may differ.
# Tests used:
# RMA-Rae1 cells = experiment: In vivo rejection of GFP expressing RMA-Rae1 tumor cells, peritoneal lavage and flow cytometry; parameters: species or system C57BL/6 mice; conditions: listed as SHIPi
# Experimental: FIG. 4A; 5×10^5 GFP expressing RMA-Rae1 cells were injected into C57BL/6 mice. Mice were treated with either SHIPi or vehicle for two days. Peritoneal lavage was performed on the third day and cells collected by lavage were analyzed by flow cytometry. Flow cytometry plots indicated GFP positive cells after removal of dead cells and non-singlets via electronic gating. FIG. 4B: Graph represents poled data from two independent experiments using at least 4 SHIPi treated mice and 4 vehicle treated mice in each experiment.
# FIG. 5A: 5×10^5 GFP expressing RMA-Rae1 cells were injected into C57BL/6 once or RAG1^−/− mice. Mice were treated with either SHIPi or vehicle for two days. Peritoneal lavage was performed on the third day and cells collected by lavage were analyzed by flow cytometry. Flow cytometry plots indicated GFP positive cells after removal of dead cells and nom-singlets via electronic gating. FIG. 5B: Graph summarizes data from 5 SHIPi treated C57BL/6 mice, 5 SHIPi treated RAG1^−/− mice, 5 vehicle treated C57BL/6 mice, and 5 vehicle treated RAG1^−/− mice.
# (§1) To determine if short term administration of SHIPi could have an in vivo functional effect we injected 5×10^5 RMA cells transected with the NKG2D ligand Rae1 into C57BL/6 mice. RMA is a mouse BL/6 derived T cell lymphoma cell line (raucher virus induced cell leukemia cell line); thus a rejection of a tumor graft in BL/6 mice is due to the presence of the Rae1 ligand or due to SHIPi treatment. Mice were treated with SHIPi (33 mg/kg) for two consecutive days and on the third day peritoneal lavage was performed to recover peritoneal contents. […] Finally, showing that there is a survival benefit for mice receiving short term SHIPi, C57BL/6 mice were injected with 1×10^5 RMA or RMA cells transected with the NKG2D ligand Rae1 and then were treated two consecutive days with SHIPi or with vehicle control. This was repeated each week such that mice received treatment or vehicle twice a week with five days rest in between each treatment. Treatment start days were spaced a week apart.
# [1] = test system: RMA cells transfected with the NKG2D ligand Rae1; experiment: Survival of RMA-Rae1 tumor bearing mice; type: in vivo, C57BL/6 mice; conditions: 1×10^5 cells; treated two consecutive days each week; vs the other three groups
# Experimental: (§2) FIG. 2: C57BL/6 mice received either RM A cells (3AC RMA and Veh RMA groups) or RMA cells transfected with the NKG2D ligand Rae1 (3AC Rae1 and Veh Rae1 groups) and were treated two consecutive days each week starting twelve hours after receiving the tumor. […] The Kaplan-Meyer survival curve represents two independent, pooled, experiments of RMA-Rae1 tumor bearing mice treated with either vehicle (n=10/experiment) or SHIPi (n=10/experiment) or one experiment of RMA tumor bearing mice treated with either vehicle (n=10/experiment) or SHIPi (n=10/experiment).
# as §1, with “This was repeated each week such that mice received treatment or vehicle twice a week with five days rest in between each treatment. Treatment start days were spaced a week apart.” left out
# [2] = test system: peritoneal NK and myeloid cells; experiment: Peritoneal cell populations in RMA-Rae1 tumor bearing mice (flow cytometry of lavage); type: in vivo, C57BL/6 mice; conditions: after two days of treatment, vs vehicle
# Experimental: FIGS. 6A-6D: SHIPi treated mice have increased peritoneal myeloid and NK cells. FIGS. 6A-D: 5×10^5 GFP expressing RMA-Rae1 cells were injected into C57BL/6 mice. Mice were treated for two days with SHIPi or vehicle alone. Peritoneal lavage was performed on the third day. Cells collected by lavage were stained with anti-NK1.1, anti-CD3ε, anti-CD19, anti-CD11b and anti-GR1 antibodies and were analyzed by flow cytometry. All populations were determined after backgating on singlets and viable cells. NK cells are NK1.1^+CD3ε^−CD19^−, T cells are CD3ε^+NK1.1^−CD19^−, B cells are CD19^+NK1.1^−CD3ε^− and myeloid cells are CD11b^+GR1^+. FIG. 6B: Graph represents pooled data from two independent experiments using at least 4 SHIPi treated mice and 4 vehicle treated mice in each experiment.
# To determine if short term administration of SHIPi could have an in vivo functional effect we injected 5×10^5 RMA cells transected with the NKG2D ligand Rae1 into C57BL/6 mice. RMA is a mouse BL/6 derived T cell lymphoma cell line (raucher virus induced cell leukemia cell line); thus a rejection of a tumor graft in BL/6 mice is due to the presence of the Rae1 ligand or due to SHIPi treatment. Mice were treated with SHIPi (33 mg/kg) for two consecutive days and on the third day peritoneal lavage was performed to recover peritoneal contents. […]
# RMA cells = experiment: Survival of RMA tumor bearing mice; type: in vivo, C57BL/6 mice; conditions: 1×10^5 cells; treated two consecutive days each week; vs vehicle treated groups
# Experimental: as §2
# To determine if short term administration of SHIPi could have an in vivo functional effect we injected 5×10^5 RMA cells transected with the NKG2D ligand Rae1 into C57BL/6 mice. RMA is a mouse BL/6 derived T cell lymphoma cell line (raucher virus induced cell leukemia cell line); thus a rejection of a tumor graft in BL/6 mice is due to the presence of the Rae1 ligand or due to SHIPi treatment. Mice were treated with SHIPi (33 mg/kg) for two consecutive days and on the third day peritoneal lavage was performed to recover peritoneal contents. […] Finally, showing that there is a survival benefit for mice receiving short term SHIPi, C57BL/6 mice were injected with 1×10^5 RMA or RMA cells transected with the NKG2D ligand Rae1 and then were treated two consecutive days with SHIPi or with vehicle control. […]
# NK cells = experiment: IFNγ production assay: ex vivo stimulation of NK cells from SHIPi treated mice; type: in vivo; conditions: vs vehicle treated mice; for IFNγ production by NK cells following ex vivo stimulation with anti-NK1.1, anti-NKp46 or anti-NKG2D antibody: mice treated daily 33 mg/kg for two days, 33 mg/kg
# Experimental: IFNγ production assay methods: Mice were treated daily with SHIPi (33 mg/kg) for two days. Mice were sacrificed by CO2 toxicity on the third day. Splenocytes were harvested and incubated for four-five hours in six well plates in the presence of Golgiplug (BD) either alone, in plates coated with either anti-NK1.1 (PK136), anti-NKp46 (2PA1.4) or anti-NKG2D (A10) antibody or in uncoated plates but with PMA ([…]) and ionomycin as a positive control. After incubation splenocytes were removed from the plates, Fc Receptors were blocked (2.4G2) and cells were stained with the Invitrogen Aqua Live/Dead cell exclusion dye. NK cells were identified by staining for either NK1.1 (PK136) or NKp46 (29A1.4) and […] (145-2C11). T cells were excluded. Cells were fixed and permeabilized (BD Cytofx/Cytoperm kit), intracellular Fc receptors were blocked (2.4G2) and stained for IFNγ (XMG1.2). Samples were run on a BD Fortessa flow cytometer and analyzed using FloJo software.
# [3] = test system: immunoregulatory cells (MDSC, nTreg, neutrophils); experiment: Preliminary studies: immunoregulatory cells in mice after SHIP inhibitor; type: in vivo, wt C57BL/76 mice
# Experimental: K118 was administered in water, and in wt C57BL/76 mice.
# SHIP1 = biological target: T1, SHIP1 (Homo sapiens, UniProt Q92835); experiment: SHIP1 inhibitor activity; type: biochemical; conditions: compared with 3AC
# T1 sequence (Q92835 1-1189): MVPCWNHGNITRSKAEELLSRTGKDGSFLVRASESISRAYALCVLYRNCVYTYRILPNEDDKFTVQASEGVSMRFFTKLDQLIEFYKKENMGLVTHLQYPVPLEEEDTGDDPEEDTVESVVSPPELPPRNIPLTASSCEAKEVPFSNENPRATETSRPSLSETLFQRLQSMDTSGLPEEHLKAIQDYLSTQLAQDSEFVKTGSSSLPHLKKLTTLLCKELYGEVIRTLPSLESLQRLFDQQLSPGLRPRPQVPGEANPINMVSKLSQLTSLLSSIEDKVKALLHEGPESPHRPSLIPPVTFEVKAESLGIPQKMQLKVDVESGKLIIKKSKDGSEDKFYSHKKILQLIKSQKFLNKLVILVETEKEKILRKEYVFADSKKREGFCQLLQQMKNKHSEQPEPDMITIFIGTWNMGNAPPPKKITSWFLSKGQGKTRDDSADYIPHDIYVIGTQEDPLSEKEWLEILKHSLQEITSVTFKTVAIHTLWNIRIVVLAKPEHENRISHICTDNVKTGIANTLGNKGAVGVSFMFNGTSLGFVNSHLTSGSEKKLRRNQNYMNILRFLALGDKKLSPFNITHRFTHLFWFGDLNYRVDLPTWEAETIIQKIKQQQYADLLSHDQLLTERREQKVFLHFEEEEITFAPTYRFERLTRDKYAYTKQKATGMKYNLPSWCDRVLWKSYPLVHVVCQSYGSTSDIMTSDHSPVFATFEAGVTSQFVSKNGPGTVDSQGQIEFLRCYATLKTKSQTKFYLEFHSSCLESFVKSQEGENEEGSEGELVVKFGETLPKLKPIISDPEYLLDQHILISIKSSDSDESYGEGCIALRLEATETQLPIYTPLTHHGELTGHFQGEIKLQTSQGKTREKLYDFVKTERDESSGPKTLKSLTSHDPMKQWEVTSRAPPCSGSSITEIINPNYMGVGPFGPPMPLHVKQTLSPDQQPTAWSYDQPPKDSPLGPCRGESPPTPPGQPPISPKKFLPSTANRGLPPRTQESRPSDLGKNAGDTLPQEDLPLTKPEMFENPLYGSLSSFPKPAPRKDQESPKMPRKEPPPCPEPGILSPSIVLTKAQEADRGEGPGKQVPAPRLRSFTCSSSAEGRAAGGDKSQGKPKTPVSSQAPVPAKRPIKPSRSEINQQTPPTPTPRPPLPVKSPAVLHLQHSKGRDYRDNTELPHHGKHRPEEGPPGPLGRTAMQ
# [4] = spleen, orally at 10 mg/kg in water
Structure (SMILES),"Tumor burden (GFP positive RMA-Rae1 cells in peritoneal lavage) (RMA-Rae1 cells; C57BL/6 mice, 5×10^5 cells, 33 mg/kg two consecutive days, lavage on third day, vs vehicle, 33 mg/kg)","Protection against RMA-Rae1 tumor in mice lacking B and T cells (RMA-Rae1 cells; RAG1−/− mice (printed RAKG−/−), two days treatment)","Protection against RMA-Rae1 tumor after in vivo depletion of NK cells (RMA-Rae1 cells; pretreated with anti-NK1.1 antibody PK136 200 ug 24 hours before tumor injection, vs isotype control antibody)",Survival of RMA-Rae1 tumor bearing mice [1],Peritoneal myeloid cells (CD11b+GR1+) [2],Numbers of NK cells in the peritoneal cavity ([2]; listed as SHIPi),Survival of RMA tumor bearing mice (RMA cells),"IFNγ production by NK cells following ex vivo stimulation with anti-NK1.1, anti-NKp46 or anti-NKG2D antibody (NK cells)","IFNγ production by NK cells following ex vivo stimulation with anti-NK1.1, anti-NKp46 or anti-NKG2D antibody (NK cells; listed as SHIPi)",IFNγ production by NK cells unstimulated or stimulated with PMA and ionomycin (NK cells; mice treated two days),Neutrophil numbers ([3]; intraperitoneal injection),Water solubility (Water solubility),SHIP1 inhibitor activity relative to 3AC (SHIP1),"Frequency of natural T regulatory cells (nTreg, CD4+CD25+FoxP3+) ([3]; mesenteric lymph node (mLN), orally at 10 mg/kg in water)",Neutrophil numbers ([3]; orally at 10 mg/kg in water),"Frequency of myeloid derived suppressor cells (MDSC) expressing Gr1 and Mac1 [3, 4]","Frequency of natural T regulatory cells (nTreg, CD4+CD25+FoxP3+) [3, 4]"
"CC(C)CCC[C@@H](C)[C@H]1CC[C@H]2[C@@H]3CCC4C[C@H](N)CC[C@]4(C)[C@H]3CC[C@]12C (stereo partly drawn) [3AC, 3 α-aminocholestane]",significantly reduced tumor burden; also recorded: increased tumor rejection,retained protection; also recorded: not due to B or T cells,protection is significantly reduced,significantly increased survival,increased,significantly increased numbers of NK cells,no significant survival difference,significantly increased IFNγ production; also recorded: significantly increased amounts of IFNγ,significantly increased IFNγ,do not see a significant difference,increased neutrophil numbers,–,–,–,–,–,–
"C[C@@]12CCC[C@H]1[C@@H]1CC[C@H]3C[C@@H](N)CC[C@]3(C)[C@H]1CC2.Cl [K118, 3β-amino-5α-androstane hydrochloride]",–,–,–,–,–,–,–,–,–,–,–,water-soluble,comparable SHIP1 inhibitor activity,Significant increases,trend for increased neutrophil numbers,significant increase,Significant increases
